Where two headings read alike, the source gives them in different places.
Assays:
[1] = target: Human KDR (residues 790-1356) (Homo sapiens (Human), UniProt P35968); assay: Human KDR kinase assay, HTRF KinEase (Example B-2); assay type: biochemical
Method in brief: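 Ten compound concentrations (3% DMSO final) were pre-plated, then KDR (790-1356) with biotinylated peptide in Mg/Mn/DTT buffer was added; ATP at Km (4.0 μM) started a 40 min room-temperature reaction. Detection used Eu-TK antibody and SA-XL665 in EDTA buffer; activity normalized to DMSO and reference inhibitor, IC50 by logistic fit.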

[2] = target: Human MER (residues 528-999) (Homo sapiens (Human), UniProt Q12866); assay: Human Mer kinase assay, HTRF KinEase (Example C-2); assay type: biochemical
Chain of Human MER (residues 528-999) (Q12866 528-999): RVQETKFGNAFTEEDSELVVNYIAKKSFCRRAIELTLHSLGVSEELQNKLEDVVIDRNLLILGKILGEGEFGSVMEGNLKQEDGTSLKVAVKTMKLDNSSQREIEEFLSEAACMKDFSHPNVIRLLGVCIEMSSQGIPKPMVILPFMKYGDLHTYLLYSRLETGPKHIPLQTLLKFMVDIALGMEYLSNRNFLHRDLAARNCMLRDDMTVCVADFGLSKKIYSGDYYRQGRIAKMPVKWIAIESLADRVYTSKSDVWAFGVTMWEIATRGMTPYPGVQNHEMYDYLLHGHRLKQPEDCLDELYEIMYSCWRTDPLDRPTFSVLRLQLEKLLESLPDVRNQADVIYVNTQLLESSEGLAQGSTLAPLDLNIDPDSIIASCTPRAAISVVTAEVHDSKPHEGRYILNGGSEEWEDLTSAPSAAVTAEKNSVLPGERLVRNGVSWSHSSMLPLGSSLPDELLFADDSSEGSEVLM
Method in brief: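 IC50 values from 10 concentrations via 4-parameter logistic fit of […], with DMSO as 100% and 1 μM reference compound as 0% activity. Reaction: MER kinase domain 528-999, 1 ng/well, 40 μM ATP (Km), biotin peptide, 5 mM MgCl2, 1 mM DTT, 3% DMSO, room temperature 60 min; HTRF streptavidin-XL665/Eu-antibody detection.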

[3] = target: Human MET (residues 956-1390) (Homo sapiens (Human), UniProt P08581); assay: Human Met kinase assay, HTRF KinEase (Example D-2); assay type: biochemical; conditions: read-out: c-Met IC50
Chain of Human MET (residues 956-1390) (P08581 956-1390): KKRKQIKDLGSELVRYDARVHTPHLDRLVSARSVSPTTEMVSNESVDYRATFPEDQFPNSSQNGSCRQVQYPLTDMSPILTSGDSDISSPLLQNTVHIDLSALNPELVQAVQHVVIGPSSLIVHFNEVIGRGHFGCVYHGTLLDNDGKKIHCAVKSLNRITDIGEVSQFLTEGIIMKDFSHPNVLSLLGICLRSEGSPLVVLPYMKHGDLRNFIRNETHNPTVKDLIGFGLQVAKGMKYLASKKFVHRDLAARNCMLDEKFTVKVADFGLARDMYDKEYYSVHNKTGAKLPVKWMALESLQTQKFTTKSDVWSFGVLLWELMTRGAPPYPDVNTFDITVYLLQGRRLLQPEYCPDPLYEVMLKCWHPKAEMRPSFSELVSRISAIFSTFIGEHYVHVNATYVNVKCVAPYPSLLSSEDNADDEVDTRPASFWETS
Method in brief: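 IC50 values come from a 4-parameter logistic fit of the […] fluorescence ratio, set between DMSO (100%) and reference compound at 1 μM (0%). Reactions held MET 956-1390 at 0.1 ng/well, ATP at Km, biotinylated peptide, 5 mM MgCl2, 1 mM MnCl2, 1 mM DTT and 3% DMSO, and ran 40 min at room temperature before streptavidin-XL665/Eu-antibody detection.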

[4] = target: Mer (phospho-Mer, MERTK-transfected 293A cells) (Homo sapiens (Human), UniProt Q12866); assay: Mer autophosphorylation ELISA in transient transfected 293A cells (Example H); assay type: cell-based; conditions: cellular activity; Mer autophosphorylation ELISA in transient transfected 293A cells
Chain of Mer (phospho-Mer, MERTK-transfected 293A cells) (Q12866 21-999): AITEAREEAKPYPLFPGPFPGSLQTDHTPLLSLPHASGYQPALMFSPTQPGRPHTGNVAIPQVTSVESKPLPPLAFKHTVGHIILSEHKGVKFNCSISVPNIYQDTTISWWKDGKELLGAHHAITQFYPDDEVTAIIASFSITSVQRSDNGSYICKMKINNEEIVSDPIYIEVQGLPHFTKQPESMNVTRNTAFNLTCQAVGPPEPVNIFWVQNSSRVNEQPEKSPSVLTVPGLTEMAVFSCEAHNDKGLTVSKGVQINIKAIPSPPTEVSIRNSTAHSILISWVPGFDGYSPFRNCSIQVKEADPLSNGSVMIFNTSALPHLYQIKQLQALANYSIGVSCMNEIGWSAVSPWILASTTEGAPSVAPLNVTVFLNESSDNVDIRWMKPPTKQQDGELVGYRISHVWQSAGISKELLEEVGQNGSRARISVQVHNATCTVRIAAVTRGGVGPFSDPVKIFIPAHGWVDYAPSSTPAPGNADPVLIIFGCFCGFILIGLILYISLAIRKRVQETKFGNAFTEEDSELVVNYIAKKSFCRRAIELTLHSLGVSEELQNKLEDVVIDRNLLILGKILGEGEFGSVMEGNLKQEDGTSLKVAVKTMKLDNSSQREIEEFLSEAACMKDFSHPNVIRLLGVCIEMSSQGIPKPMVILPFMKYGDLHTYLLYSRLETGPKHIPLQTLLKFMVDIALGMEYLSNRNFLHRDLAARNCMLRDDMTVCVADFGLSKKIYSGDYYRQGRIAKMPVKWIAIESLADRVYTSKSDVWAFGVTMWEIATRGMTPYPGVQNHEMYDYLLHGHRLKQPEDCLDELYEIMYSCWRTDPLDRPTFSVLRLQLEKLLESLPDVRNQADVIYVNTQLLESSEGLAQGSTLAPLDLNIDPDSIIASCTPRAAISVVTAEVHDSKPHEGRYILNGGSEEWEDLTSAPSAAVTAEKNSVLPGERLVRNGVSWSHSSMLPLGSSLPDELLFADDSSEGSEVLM
Method in brief: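 IC50 from 4-parameter logistic fit of phospho-Mer levels, quantified by ELISA against a phospho-Mer standard in lysates of MERTK-transfected 293A cells. Cells exposed 1 h to 8-point serial dilutions, serum-free, 0.3% DMSO; controls: DMSO (100%) and reference inhibitor (0%).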

Chain of Human KDR (residues 790-1356) (P35968 790-1356): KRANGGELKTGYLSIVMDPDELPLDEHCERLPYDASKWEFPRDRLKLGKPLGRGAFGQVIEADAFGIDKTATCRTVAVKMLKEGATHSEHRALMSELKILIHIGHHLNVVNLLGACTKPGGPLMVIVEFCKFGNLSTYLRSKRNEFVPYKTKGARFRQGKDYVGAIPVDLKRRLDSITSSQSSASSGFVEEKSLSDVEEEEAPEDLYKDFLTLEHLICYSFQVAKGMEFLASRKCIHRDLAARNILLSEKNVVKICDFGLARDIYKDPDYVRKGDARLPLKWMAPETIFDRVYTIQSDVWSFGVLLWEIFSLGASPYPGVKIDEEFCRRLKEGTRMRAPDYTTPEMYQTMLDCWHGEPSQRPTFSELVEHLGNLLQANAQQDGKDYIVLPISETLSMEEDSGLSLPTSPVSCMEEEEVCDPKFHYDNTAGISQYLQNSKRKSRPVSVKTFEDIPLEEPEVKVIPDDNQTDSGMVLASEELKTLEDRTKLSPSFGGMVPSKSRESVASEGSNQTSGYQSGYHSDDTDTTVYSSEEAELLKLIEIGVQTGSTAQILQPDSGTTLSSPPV

Row | Compound | IC50 [4] [nM] | further results
1 | COc1cc2nccc(Oc3ccc(NC(=O)c4c(C)nc(C)c(-c5ccc(F)cc5)c4O)cc3F)c2nc1OC [Compound 154, N-[4-[(6,7-Dimethoxy-1,5-naphthyridin-4-yl)oxy]-3-fluorophenyl]-5-(4-fluorophenyl)-4-hydroxy-2,6-dimethylpyridine-3-carboxamide] | < 100 | IC50 ([1]; protocol of Example B-2 (other compounds)): < 100 nM; IC50 ([2]; protocol of Example C-2 (other compounds)): < 100 nM; IC50 ([3]; protocol of Example D-2 (other compounds)): < 100 nM
2 | COc1cnc2c(Oc3ccc(NC(=O)c4nnc(C)c(-c5ccc(F)cc5)c4OC)cc3)ccnc2c1 [Compound 515, 5-(4-fluorophenyl)-4-methoxy-N-[4-[(7-methoxy-1,5-naphthyridin-4-yl)oxy]phenyl]-6-methylpyridazine-3-carboxamide] | < 100 | IC50 ([1]; protocol of Example B-2): < 100 nM; IC50 ([2]; protocol of Example C-2): < 100 nM; IC50 ([3]; protocol of Example D-2): < 100 nM
3 | C=C(C)c1cnc2c(Oc3ccc(NC(=O)c4c(C)cc(C)n(-c5ccc(F)cc5)c4=O)cc3F)ccnc2c1 [Compound 457, 1-(4-fluorophenyl)-N-[3-fluoro-4-[(7-prop-1-en-2-yl-1,5-naphthyridin-4-yl)oxy]phenyl]-4,6-dimethyl-2-oxopyridine-3-carboxamide] | < 100 | IC50 ([1]; protocol of Example B-2): < 100 nM; IC50 ([2]; protocol of Example C-2): < 100 nM; IC50 ([3]; protocol of Example D-2): < 100 nM
4 | COc1cc2nccc(Oc3ccc(NC(=O)c4cn(C(C)C)cc(-c5ccc(F)cc5)c4=O)cc3F)c2nc1OC [Compound 44, N-[4-[(6,7-Dimethoxy-1,5-naphthyridin-4-yl)oxy]-3-fluorophenyl]-5-(4-fluorophenyl)-4-oxo-1-propan-2-ylpyridine-3-carboxamide] | < 100 | –
5 | COc1cc2nccc(Oc3ccc(NC(=O)c4c(C)n(C)c(C)c(-c5ccc(F)cc5)c4=O)cc3)c2nc1OC [Compound 523, N-[4-[(6,7-dimethoxy-1,5-naphthyridin-4-yl)oxy]phenyl]-5-(4-fluorophenyl)-1,2,6-trimethyl-4-oxopyridine-3-carboxamide] | < 100 | IC50 ([1]; protocol of Example B-2): > 300 nM; IC50 ([2]; protocol of Example C-2): < 100 nM; IC50 ([3]; protocol of Example D-2): < 100 nM
6 | CCc1nc(C)c(-c2ccc(F)cc2C)c(O)c1C(=O)Nc1ccc(Oc2ccnc3ccc(OC)nc23)cc1 [Compound 526, 2-ethyl-5-(4-fluoro-2-methylphenyl)-4-hydroxy-N-[4-[(6-methoxy-1,5-naphthyridin-4-yl)oxy]phenyl]-6-methylpyridine-3-carboxamide] | < 100 | IC50 ([1]; protocol of Example B-2): > 300 nM; IC50 ([2]; protocol of Example C-2): < 100 nM; IC50 ([3]; protocol of Example D-2): 100 to 300 nM
7 | COc1cc2nccc(Oc3ccc(NC(=O)c4c(C)n(C)c(C)c(-c5ccc(F)cc5)c4=O)cc3F)c2nc1OC [Compound 511, N-[4-[(6,7-dimethoxy-1,5-naphthyridin-4-yl)oxy]-3-fluorophenyl]-5-(4-fluorophenyl)-1,2,6-trimethyl-4-oxopyridine-3-carboxamide] | < 100 | IC50 ([1]; protocol of Example B-2): 100 to 300 nM; IC50 ([2]; protocol of Example C-2): < 100 nM; IC50 ([3]; protocol of Example D-2): < 100 nM
8 | COc1cc2nccc(Oc3ccc(NC(=O)c4nn(C)c(C)c(-c5ccc(F)cc5C)c4=O)cc3)c2nc1OC [Compound 517, N-[4-[(6,7-dimethoxy-1,5-naphthyridin-4-yl)oxy]phenyl]-5-(4-fluoro-2-methylphenyl)-1,6-dimethyl-4-oxopyridazine-3-carboxamide] | < 100 | IC50 ([1]; protocol of Example B-2): < 100 nM; IC50 ([2]; protocol of Example C-2): < 100 nM; IC50 ([3]; protocol of Example D-2): < 100 nM
9 | COc1cc2nccc(Oc3ccc(NC(=O)c4cn(C(C)C)c(C)c(-c5ccc(Cl)c(Cl)c5)c4=O)cc3F)c2cc1OC [Compound 23, 5-(3,4-Dichlorophenyl)-N-[4-(6,7-dimethoxyquinolin-4-yl)oxy-3-fluorophenyl]-6-methyl-4-oxo-1-propan-2-ylpyridine-3-carboxamide] | < 100 | –
10 | COc1cc2nccc(Oc3ccc(NC(=O)c4cn(C(C)C)cc(-c5ccc(F)cc5)c4=O)cc3F)c2cc1OC [Compound 43, N-[4-(6,7-Dimethoxyquinolin-4-yl)oxy-3-fluorophenyl]-5-(4-fluorophenyl)-4-oxo-1-propan-2-ylpyridine-3-carboxamide] | < 100 | –
11 | COc1cc2nccc(Oc3ccc(NC(=O)c4cn(C(C)C)c(C)c(-c5ccc(F)cc5)c4=O)cc3F)c2cc1OC [Compound 22, N-[4-(6,7-Dimethoxyquinolin-4-yl)oxy-3-fluorophenyl]-5-(4-fluorophenyl)-6-methyl-4-oxo-1-propan-2-ylpyridine-3-carboxamide] | < 100 | –
12 | COc1cc2nccc(Oc3ccc(NC(=O)c4cn(C5CC5)cc(-c5ccc(F)cc5)c4=O)cc3F)c2nc1OC [Compound 41, 1-Cyclopropyl-N-[4-[(6,7-dimethoxy-1,5-naphthyridin-4-yl)oxy]-3-fluorophenyl]-5-(4-fluorophenyl)-4-oxopyridine-3-carboxamide] | < 100 | –
13 | COc1cc2nccc(Oc3ccc(NC(=O)c4cn(C5CCCC5)c(C)c(-c5ccc(F)c(Cl)c5)c4=O)cc3F)c2nc1OC [Compound 27, 5-(3-Chloro-4-fluorophenyl)-1-cyclopentyl-N-[4-[(6,7-dimethoxy-1,5-naphthyridin-4-yl)oxy]-3-fluorophenyl]-6-methyl-4-oxopyridine-3-carboxamide] | < 100 | –
14 | COc1cc2nccc(Oc3ccc(NC(=O)c4cn(C(C)C)c(C)c(-c5ccc(F)cc5)c4=O)cc3F)c2nc1OC [Compound 21, N-[4-[(6,7-Dimethoxy-1,5-naphthyridin-4-yl)oxy]-3-fluorophenyl]-5-(4-fluorophenyl)-6-methyl-4-oxo-1-propan-2-ylpyridine-3-carboxamide] | < 100 | –
15 | CNc1ncc(C(=O)Nc2ccc(Oc3ccnc4cc(OC)c(OC)nc34)c(F)c2)c(=O)n1-c1ccc(F)cc1 [Compound 99, N-[4-[(6,7-Dimethoxy-1,5-naphthyridin-4-yl)oxy]-3-fluorophenyl]-1-(4-fluorophenyl)-2-(methylamino)-6-oxopyrimidine-5-carboxamide] | < 100 | –
16 | COc1cc2nccc(Oc3ccc(NC(=O)c4cncc(-c5ccc(F)cc5)c4O)cc3F)c2nc1OC [Compound 42, N-[4-[(6,7-Dimethoxy-1,5-naphthyridin-4-yl)oxy]-3-fluorophenyl]-5-(4-fluorophenyl)-4-hydroxypyridine-3-carboxamide] | < 100 | –
17 | COc1cc2nccc(Oc3ccc(NC(=O)c4c[nH]c(=S)n(-c5ccc(F)cc5)c4=O)cc3F)c2nc1OC [Compound 104, N-[4-[(6,7-Dimethoxy-1,5-naphthyridin-4-yl)oxy]-3-fluorophenyl]-3-(4-fluorophenyl)-4-oxo-2-sulfanylidene-1H-pyrimidine-5-carboxamide] | < 100 | –
18 | COc1cc2nccc(Oc3ccc(NC(=O)c4cn(C(C)C)c(C)c(-c5ccc(F)c(Cl)c5)c4=O)cc3F)c2nc1OC [Compound 24, 5-(3-Chloro-4-fluorophenyl)-N-[4-[(6,7-dimethoxy-1,5-naphthyridin-4-yl)oxy]-3-fluorophenyl]-6-methyl-4-oxo-1-propan-2-ylpyridine-3-carboxamide] | < 100 | –
19 | COc1cc2nccc(Oc3ccc(NC(=O)c4cn(C(C)C)c(C)c(-c5ccc(Cl)c(Cl)c5)c4=O)cc3F)c2nc1OC [Compound 25, 5-(3,4-Dichlorophenyl)-N-[4-[(6,7-dimethoxy-1,5-naphthyridin-4-yl)oxy]-3-fluorophenyl]-6-methyl-4-oxo-1-propan-2-ylpyridine-3-carboxamide] | < 100 | –
20 | COc1cc2nccc(Oc3ccc(NC(=O)c4cn(C5CCCC5)c(C)c(-c5ccc(F)cc5)c4=O)cc3F)c2nc1OC [Compound 26] | < 100 | –
21 | COc1cc2nccc(Oc3ccc(NC(=O)c4cn(C)cc(-c5ccc(F)cc5)c4=O)cc3F)c2nc1OC [Compound 45, N-[4-[(6,7-Dimethoxy-1,5-naphthyridin-4-yl)oxy]-3-fluorophenyl]-5-(4-fluorophenyl)-1-methyl-4-oxopyridine-3-carboxamide] | < 100 | –
22 | COc1cc2nccc(Oc3ccc(NC(=O)c4cn(C5COC5)cc(-c5ccc(F)cc5)c4=O)cc3F)c2nc1OC [Compound 47, N-[4-[(6,7-Dimethoxy-1,5-naphthyridin-4-yl)oxy]-3-fluorophenyl]-5-(4-fluorophenyl)-1-(oxetan-3-yl)-4-oxopyridine-3-carboxamide] | < 100 | –
23 | COc1cc2nccc(Oc3ccc(NC(=O)c4cn(C5CCCC5)cc(-c5ccc(F)cc5)c4=O)cc3F)c2nc1OC [Compound 46, 1-Cyclopentyl-N-[4-[(6,7-dimethoxy-1,5-naphthyridin-4-yl)oxy]-3-fluorophenyl]-5-(4-fluorophenyl)-4-oxopyridine-3-carboxamide] | < 100 | –
